Measured values: BigSolDB 2.1

CCCCN(CCCC)c1ccc(C(=O)c2ccccc2C(=O)O)c(O)c1
solubility (mole fraction)
Conditions	283.15 K	288.15 K	293.15 K	298.15 K	303.15 K	308.15 K	313.15 K	318.15 K	323.15 K
in acetone	0.015	0.0171	0.0196	0.0216	0.0251	0.0291	0.033	0.0386	0.0436
in acetonitrile	0.000701	0.000848	0.00113	0.00138	0.0018	0.00227	0.00284	0.00363	0.00444
in dichloromethane	0.0128	0.0141	0.0157	0.0183	0.0214	0.0251	–	–	–
in ethanol	0.00193	0.00252	0.00334	0.00422	0.00529	0.00641	0.0082	0.0102	0.013
in ethyl acetate	0.0043	0.00516	0.00606	0.00698	0.00782	0.009	0.00995	0.0112	0.0126
in isopropanol	0.00178	0.00232	0.00302	0.0039	0.00508	0.00667	0.00886	0.0117	0.0147
in isopropyl acetate	0.00415	–	–	–	–	–	–	–	–
